Data set [1] addresses T1, Diacylglycerol O-acyltransferase 1 (Homo sapiens, UniProt O75907).
T1 sequence (O75907 whole entry): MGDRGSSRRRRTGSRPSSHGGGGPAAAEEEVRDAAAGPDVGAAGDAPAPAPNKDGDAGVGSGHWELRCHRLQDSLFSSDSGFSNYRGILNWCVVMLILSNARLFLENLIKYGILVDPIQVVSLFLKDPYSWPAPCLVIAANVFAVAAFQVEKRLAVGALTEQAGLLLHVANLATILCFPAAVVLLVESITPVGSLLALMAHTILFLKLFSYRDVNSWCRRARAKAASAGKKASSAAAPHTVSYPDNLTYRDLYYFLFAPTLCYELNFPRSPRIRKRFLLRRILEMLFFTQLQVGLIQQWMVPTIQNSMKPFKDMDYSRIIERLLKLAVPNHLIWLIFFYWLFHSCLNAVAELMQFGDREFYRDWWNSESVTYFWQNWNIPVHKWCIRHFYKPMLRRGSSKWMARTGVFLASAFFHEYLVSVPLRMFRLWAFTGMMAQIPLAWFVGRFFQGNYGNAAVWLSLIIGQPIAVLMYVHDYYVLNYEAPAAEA
As to the kind of experiment: Inhibition of human DGAT1.

Data set [2] is described as follows: Lipophilicity, logD of the compound. Type of data set: physicochemical. The conditions noted are these: octanol/water.
Data set [3] has as its target T2, Sterol O-acyltransferase 1 (Homo sapiens, UniProt P35610).
T2 sequence (P35610 whole entry): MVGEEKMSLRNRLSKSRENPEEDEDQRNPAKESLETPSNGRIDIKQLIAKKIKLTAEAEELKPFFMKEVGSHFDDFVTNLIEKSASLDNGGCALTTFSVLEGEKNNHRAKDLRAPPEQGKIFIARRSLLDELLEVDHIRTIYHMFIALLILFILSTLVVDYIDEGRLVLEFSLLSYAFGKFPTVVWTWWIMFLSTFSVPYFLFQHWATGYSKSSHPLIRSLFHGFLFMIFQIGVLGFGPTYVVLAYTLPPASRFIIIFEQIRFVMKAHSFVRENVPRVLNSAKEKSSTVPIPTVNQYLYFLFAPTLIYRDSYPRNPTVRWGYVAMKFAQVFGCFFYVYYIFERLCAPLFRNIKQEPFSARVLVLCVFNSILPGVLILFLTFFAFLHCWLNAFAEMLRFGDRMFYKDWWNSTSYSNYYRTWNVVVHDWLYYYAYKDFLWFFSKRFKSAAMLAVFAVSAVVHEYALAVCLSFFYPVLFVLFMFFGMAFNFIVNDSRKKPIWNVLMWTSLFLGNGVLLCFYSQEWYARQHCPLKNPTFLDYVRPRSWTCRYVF
As to the kind of experiment: Inhibition of human ACAT1.

Data set [4] can be described thus: Thermodynamic solubility of the compound after 24 hrs at pH 7.4. It is filed as physicochemical. The following applies: buffer, read-out: Therm_solubility.
Data set [5] can be described thus: Apparent permeability in MDCK cells assessed as permeability from apical to basolateral side. It is filed as ADME, cell-based, Canis lupus familiaris. The following applies: dog.
A further data set deals with Hepatocyte. The data set can be described thus: Intrinsic clearance in human hepatocytes. Type of data set: ADME, cell-based.
Data set [6] can be described thus: Oral bioavailability in rat. Type of data set: ADME, organism-based. The conditions noted are these: in vivo.
The species entered for the next data set is Canis familiaris. As to the kind of experiment: Unbound clearance in dog. It is filed as ADME, organism-based, Canis lupus familiaris. The conditions noted are these: in vivo.
The nature of data set [7]: Oral bioavailability in dog. It is filed as ADME, organism-based, Canis lupus familiaris. The following applies: in vivo.
Another data set is filed under the species Rattus norvegicus. The data set can be described thus: Unbound clearance in rat. Type of data set: ADME, organism-based. The following applies: in vivo.
The nature of data set [8]: Clearance in rat. It is filed as ADME, organism-based. The conditions noted are these: in vivo.
Data set [9] in a line: Clearance in dog. It is filed as ADME, organism-based, Canis lupus familiaris. The conditions noted are these: in vivo.
In another data set the test system is Plasma. The data set can be described thus: Fraction unbound in rat plasma. It is filed as ADME, cell-free.

Converted amounts (≈) assume the structure as drawn.

By IC50 is commonly meant the concentration needed to halve the response being measured. Low readings indicate greater potency in that assay, high ones weaker potency in that assay. The term logD denotes the decadic logarithm of the distribution of all forms, ionised or not, between an organic phase and buffer at a given pH. As for `N#Cc1ccc(Nc2nnc(C(=O)Nc3ccc(O[C@H]4CC[C@@H](C(=O)O)CC4)cc3)o2)cc1`, the IC50 in data set [1] was 18 nM; in [3], 14300 nM. In [2], this compound displayed a logD of 1.4.
With `O=C(Nc1ccc(O[C@H]2CC[C@H](C(=O)O)CC2)cc1F)c1nnc(Nc2cc(F)c(F)cc2F)o1`, the IC50 worked out at 15 nM in [1] and 6500 nM in data set [3]. For the same compound, the solubility thermodynamic at 24 h in [4] was found to be 13 µM (≈ 6.43 µg/mL). Besides, in data set [2], the logD amounted to 1.8.
In general, Papp A→B refers to how fast a substance crosses the layer from the apical side. The clearance is a measure of how efficiently the substance is removed, as volume per time. Higher therefore signals efficient removal. As to `O=C(Nc1ccc(O[C@H]2CC[C@@H](C(=O)O)CC2)nc1)c1nnc(Nc2ccc(F)c(F)c2)o1`, the Papp A→B in data set [5] came out at 2 ×10⁻⁶ cm/s. In addition, the “Intrinsic clearance (CLint)” value with Hepatocyte is less than 2 µL/min/mg. Moreover, the values for the IC50 in data set [1] and in data set [3] were 5 nM and 6500 nM, respectively. In addition, the bioavailability was found to be 33% in [6] and 60% in data set [7]. Besides, the CL free came out at 130 mL/min/kg in the data set filed under Canis familiaris and 740 mL/min/kg in the data set filed under Rattus norvegicus. For the same compound, the solubility thermodynamic at 24 h in [4] was found to be 49 µM (≈ 22.5 µg/mL). This compound displayed a logD in data set [2] of 1.9. Moreover, the clearance in [8] was 7.4 mL/min/kg; in [9], 4.7 mL/min/kg.
Consider `O=C(Nc1ccc(O[C@H]2CC[C@@H](C(=O)O)CC2)c(F)c1)c1nnc(Nc2cc(F)c(F)cc2F)o1`, for which, in [4], the solubility thermodynamic at 24 h came to 11 µM (≈ 5.44 µg/mL). Moreover, in [2], the log distribution coefficient (logD) was determined as 2.3.
In the case of `O=C(O)c1cccc(Oc2ccc(NC(=O)c3nnc(Nc4ccc(F)c(F)c4)o3)cc2)c1`, in the data set with Hepatocyte, the “Intrinsic clearance (CLint)” value was less than 22 µL/min/mg. For the same compound, in [4], the solubility thermodynamic at 24 h was 6 µM (≈ 2.71 µg/mL). The logD in data set [2] worked out at 2.3. Also, the Fu in the data set on Plasma is on record as less than 0.01%.
For the compound `O=C(Nc1ccc(O[C@H]2CC[C@@H](C(=O)O)CC2)cc1)c1nnc(Nc2cc(F)c(F)cc2F)o1`, the Papp A→B in [5] turned out to be 11 ×10⁻⁶ cm/s. Further, the “Intrinsic clearance (CLint)” value in the data set on Hepatocyte was less than 2 µL/min/mg. The bioavailability in data set [6] was determined as 115%; in data set [7], 23%. Further, the CL free in the data set filed under Canis familiaris turned out to be 920 mL/min/kg; in the data set filed under Rattus norvegicus, 470 mL/min/kg. The solubility thermodynamic at 24 h in data set [4] was determined as 43 µM (≈ 20.5 µg/mL). The logD in data set [2] came to 1.9. Moreover, the Fu in the data set with Plasma was 0.4%. Moreover, the clearance worked out at 1.1 mL/min/kg in [8] and 11 mL/min/kg in data set [9].
As to `O=C(Nc1ccc(O[C@H]2CC[C@@H](C(=O)O)CC2)cc1)c1nnc(Nc2ccc(F)cc2)o1`, the IC50 in data set [1] was 5 nM; in [3] it was 1800 nM. Further, the solubility thermodynamic at 24 h in [4] was 5 µM (≈ 2.2 µg/mL). In data set [2], this compound displayed a logD of 1.2.
`O=C(O)C[C@H]1CC[C@H](c2ccc(NC(=O)c3nnc(Nc4ccc(F)c(F)c4)o3)cc2)CC1`: in data set [4], the solubility thermodynamic at 24 h amounted to 2 µM (≈ 0.913 µg/mL).
Regarding `O=C(Nc1ccc(O[C@H]2CC[C@H](C(=O)O)CC2)cc1)c1nnc(Nc2cc(F)c(F)cc2F)o1`, the solubility thermodynamic at 24 h in [4] worked out at 27 µM (≈ 12.9 µg/mL). In data set [2], this compound came in with a logD of 1.9.
On to `O=C(Nc1ccc(O[C@H]2CC[C@@H](C(=O)O)CC2)cc1)c1nnc(Nc2ccc(F)c(F)c2)o1`, for which the IC50 in data set [1] was determined as 4 nM; in data set [3], 1100 nM. Further, in data set [4], the solubility thermodynamic at 24 h was found to be 3 µM (≈ 1.38 µg/mL).
As to `O=C(Nc1ccc(O[C@H]2CC[C@@H](C(=O)O)CC2)nc1F)c1nnc(Nc2ccc(F)c(F)c2)o1`, the Papp A→B in data set [5] was 16 ×10⁻⁶ cm/s. The “Intrinsic clearance (CLint)” value in the data set with Hepatocyte is less than 2 µL/min/mg. Further, the IC50 in [1] is 3 nM; in data set [3] it was 4800 nM. For the same compound, the results for the CL free in the data set listed under Canis familiaris and in the data set listed under Rattus norvegicus were 300 mL/min/kg and 600 mL/min/kg, respectively. For the same compound, the solubility thermodynamic at 24 h in [4] amounted to 15 µM (≈ 7.16 µg/mL). This compound also came in with a logD in data set [2] of 1.9. Further, the clearance is 3.6 mL/min/kg in data set [8] and 5.1 mL/min/kg in [9].
Consider `O=C(Nc1cnc(O[C@H]2CC[C@@H](C(=O)O)CC2)cc1F)c1nnc(Nc2cc(F)c(F)cc2F)o1`, for which the IC50 in [1] came to 6 nM; in data set [3], 1300 nM. For the same compound, the solubility thermodynamic at 24 h in [4] was 240 µM (≈ 119 µg/mL). This compound yielded a logD in [2] of 1.6.
Turning to `O=C(Nc1ccc(O[C@H]2CC[C@@H](C(=O)O)CC2)nc1F)c1nnc(Nc2cc(F)c(F)cc2F)o1`, the Papp A→B in [5] came out at 15 ×10⁻⁶ cm/s. Further, the “Intrinsic clearance (CLint)” value with Hepatocyte was less than 2 µL/min/mg. The IC50 was 4 nM in data set [1] and 1100 nM in [3]. Further, the results for the bioavailability in [6] and in data set [7] were 100% and 61%, respectively. Moreover, the CL free in the data set listed under Canis familiaris was determined as 200 mL/min/kg; in the data set filed under Rattus norvegicus, 300 mL/min/kg. For the same compound, the solubility thermodynamic at 24 h in [4] was 2200 µM (≈ 1090 µg/mL). Further, in [2], the logD turned out to be 1.8. Also, the clearance came out at 1.8 mL/min/kg in [8] and 4.6 mL/min/kg in data set [9].
`O=C(O)c1ccc(Oc2ccc(NC(=O)c3nnc(Nc4ccc(F)c(F)c4)o3)cn2)cc1`: the apparent permeability from apical to basolateral (Papp A→B) in data set [5] stood at 1.1 ×10⁻⁶ cm/s. Moreover, the IC50 in data set [1] came to 5 nM; in data set [3] it was 5600 nM. The solubility thermodynamic at 24 h in data set [4] was 23 µM (≈ 10.4 µg/mL). For the same compound, the logD in [2] was 1.4.

Source of the values: ChEMBL document CHEMBL3132759, “Design and synthesis of a novel series of cyclohexyloxy-pyridyl derivatives as inhibitors of diacylglycerol acyl transferase 1” (Medchemcomm, 2013).
